Where a name gives a salt, the structure may show the parent alone. Each block holds one molecule with its values, some of them ahead of it.
Assays:
[1] = animal models; cited from earlier work
[2] = 3DG inactivation assay (3DG binding assay); conditions: for 3DG inactivating activity: summary of Table 3
Protocol: The following assay was used to determine inactivation of 3DG by various natural products and chemicals.
• 1. Dilute the samples with Reagent 1 to a volume of 1.9 ml and add 100 uL Reagent 6 to a total of 2 mL. • 2. Take 600 μL from each solution before incubation (as 0 day sample) • 3. Let sit for 24 hours and 72 hours at 37° and remove 600 μL for samples on day 1 and day 3) • 4.

[3] = in vivo; cited from earlier work

Molecule: N=C(N)NN [Aminoguanidine]
- AGEs-associated retinal, neural, arterial, and renal pathologies [1]: reduces

Molecule: N=C(N)NCCC[C@H](N)C(=O)O [Arginine]
- 3DG Conc ([2]; 2 mM, 1 day, 37°): 15.71 µM
- 3DG Conc ([2]; 2 mM, 3 days, 37°): 13.14 µM
- 3DG Conc ([2]; 6 mM, 1 day, 37°): 13.66 µM
- 3DG Conc ([2]; 6 mM, 3 days, 37°): 8.50 µM
- 3DG Conc ([2]; 12 mM, 1 day, 37°): 12.24 µM
- 3DG Conc ([2]; 12 mM, 3 days, 37°): 4.98 µM
- 3DG inactivating activity [2]: most amount of 3DG inactivating activity

- 3DG Conc ([2]; 5 mM, 1 day, 37°): 13.75 µM
- 3DG Conc ([2]; 5 mM, 3 days, 37°): 11.86 µM
- 3DG Conc ([2]; 15 mM, 1 day, 37°): 13.99 µM
- 3DG Conc ([2]; 15 mM, 3 days, 37°): 10.18 µM
- 3DG Conc ([2]; 30 mM, 1 day, 37°): 17.26 µM
- 3DG Conc ([2]; 30 mM, 3 days, 37°): 12.64 µM
Molecule: O=C1O[C@H]([C@@H](O)CO)C(O)=C1O [Ascorbic Acid]

- 3DG Conc ([2]; 2.5 mM, 1 day, 37°): 17.27 µM
- 3DG Conc ([2]; 2.5 mM, 3 days, 37°): 16.18 µM
- 3DG Conc ([2]; 5 mM, 0 day): 21.06 µM
- 3DG Conc ([2]; 5 mM, 1 day, 37°): 18.13 µM
- 3DG Conc ([2]; 5 mM, 3 days, 37°): 17.96 µM
- 3DG Conc ([2]; 7.5 mM, 1 day, 37°): 16.92 µM
- 3DG Conc ([2]; 7.5 mM, 3 days, 37°): 15.37 µM
- 3DG Conc ([2]; 12.5 mM, 1 day, 37°): 18.58 µM
- 3DG Conc ([2]; 12.5 mM, 3 days, 37°): 14.57 µM
- 3DG Conc ([2]; 15 mM, 0 day): 22.86 µM
- 3DG Conc ([2]; 15 mM, 1 day, 37°): 18.84 µM
- 3DG Conc ([2]; 15 mM, 3 days, 37°): 16.95 µM
- 3DG Conc ([2]; 30 mM, 0 day): 22.09 µM
- 3DG Conc ([2]; 30 mM, 1 day, 37°): 19.56 µM
- 3DG Conc ([2]; 30 mM, 3 days, 37°): 19.17 µM
Molecule: CC(C)(CO)[C@@H](O)C(=O)NCCC(=O)[O-].CC(C)(CO)[C@@H](O)C(=O)NCCC(=O)[O-].[Ca+2] [Calcium Panthenate]

- 3DG Conc ([2]; 2 mM, 1 day, 37°): 16.85 µM
- 3DG Conc ([2]; 2 mM, 3 days, 37°): 15.58 µM
- 3DG Conc ([2]; 5 mM, 1 day, 37°): 16.18 µM
- 3DG Conc ([2]; 5 mM, 3 days, 37°): 14.58 µM
- 3DG Conc ([2]; 6 mM, 1 day, 37°): 15.96 µM
- 3DG Conc ([2]; 6 mM, 3 days, 37°): 16.93 µM
- 3DG Conc ([2]; 12 mM, 1 day, 37°): 15.05 µM
- 3DG Conc ([2]; 12 mM, 3 days, 37°): 12.37 µM
- 3DG Conc ([2]; 15 mM, 1 day, 37°): 16.90 µM
- 3DG Conc ([2]; 15 mM, 3 days, 37°): 15.39 µM
- 3DG Conc ([2]; 30 mM, 1 day, 37°): 18.45 µM
- 3DG Conc ([2]; 30 mM, 3 days, 37°): 13.97 µM
Molecule: NCCC(=O)N[C@@H](Cc1cnc[nH]1)C(=O)O [Carnosine]

- 3DG Conc ([2]; 5 mM, 0 day): 25.15 µM
- 3DG Conc ([2]; 5 mM, 1 day, 37°): 43.42 µM
- 3DG Conc ([2]; 5 mM, 3 days, 37°): 82.33 µM
- 3DG Conc ([2]; 15 mM, 0 day): 36.00 µM
- 3DG Conc ([2]; 15 mM, 1 day, 37°): 122.14 µM
- 3DG Conc ([2]; 15 mM, 3 days, 37°): 181.09 µM
- 3DG Conc ([2]; 30 mM, 0 day): 56.87 µM
- 3DG Conc ([2]; 30 mM, 1 day, 37°): 183.92 µM
- 3DG Conc ([2]; 30 mM, 3 days, 37°): 173.60 µM
Molecule: Cl.N[C@H]1C(O)O[C@H](CO)[C@@H](O)[C@@H]1O (stereo partly drawn) [Glucosamine HCl, D-Glucosamine HCl]

- 3DG Conc ([2]; 5 mM, 1 day, 37°): 17.51 µM
- 3DG Conc ([2]; 5 mM, 3 days, 37°): 16.27 µM
- 3DG Conc ([2]; 15 mM, 1 day, 37°): 16.58 µM
- 3DG Conc ([2]; 15 mM, 3 days, 37°): 17.52 µM
- 3DG Conc ([2]; 30 mM, 1 day, 37°): 15.39 µM
- 3DG Conc ([2]; 30 mM, 3 days, 37°): 15.87 µM
Molecule: CNC[C@H](O)[C@@H](O)[C@H](O)[C@H](O)CO.Cl [Meglumine-HCl, reference compound]

- 3DG Conc ([2]; 5 mM, 0 day): 19.54 µM
- 3DG Conc ([2]; 5 mM, 1 day, 37°): 18.10 µM
- 3DG Conc ([2]; 5 mM, 3 days, 37°): 19.51 µM
- 3DG Conc ([2]; 15 mM, 0 day): 18.08 µM
- 3DG Conc ([2]; 15 mM, 1 day, 37°): 17.74 µM
- 3DG Conc ([2]; 15 mM, 3 days, 37°): 16.84 µM
- 3DG Conc ([2]; 30 mM, 0 day): 18.91 µM
- 3DG Conc ([2]; 30 mM, 1 day, 37°): 17.67 µM
- 3DG Conc ([2]; 30 mM, 3 days, 37°): 17.63 µM
Molecule: CC(C)(CO)[C@@H](O)C(=O)NCCCO [Panthenol]

- 3DG Conc ([2]; 2 mM, 1 day, 37°): 13.71 µM
- 3DG Conc ([2]; 2 mM, 3 days, 37°): 12.29 µM
- 3DG Conc ([2]; 6 mM, 1 day, 37°): 13.00 µM
- 3DG Conc ([2]; 6 mM, 3 days, 37°): 8.12 µM
- 3DG Conc ([2]; 12 mM, 1 day, 37°): 12.20 µM
- 3DG Conc ([2]; 12 mM, 3 days, 37°): 7.14 µM
- 3DG inactivating activity [2]: most amount of 3DG inactivating activity
Molecule: Cc1ncc(COP(=O)(O)O)c(C=O)c1O [Pyridoxal-5′-Phosphate]

- 3DG Conc ([2]; 2 mM, 0 day): 16.46 µM
- 3DG Conc ([2]; 2 mM, 1 day, 37°): 12.16 µM
- 3DG Conc ([2]; 2 mM, 3 days, 37°): 16.19 µM
- 3DG Conc ([2]; 6 mM, 0 day): 16.02 µM
- 3DG Conc ([2]; 6 mM, 1 day, 37°): 14.57 µM
- 3DG Conc ([2]; 6 mM, 3 days, 37°): 15.72 µM
- 3DG Conc ([2]; 12 mM, 0 day): 14.80 µM
- 3DG Conc ([2]; 12 mM, 1 day, 37°): 14.79 µM
- 3DG Conc ([2]; 12 mM, 3 days, 37°): 14.99 µM
Molecule: Cc1ncc(CO)c(C=O)c1O.Cl [Pyridoxal-HCl]

- 3DG Conc ([2]; 2 mM, 0 day): 16.32 µM
- 3DG Conc ([2]; 2 mM, 1 day, 37°): 14.82 µM
- 3DG Conc ([2]; 2 mM, 3 days, 37°): 16.35 µM
- 3DG Conc ([2]; 6 mM, 0 day): 16.13 µM
- 3DG Conc ([2]; 6 mM, 1 day, 37°): 16.67 µM
- 3DG Conc ([2]; 6 mM, 3 days, 37°): 15.83 µM
- 3DG Conc ([2]; 12 mM, 0 day): 15.90 µM
- 3DG Conc ([2]; 12 mM, 1 day, 37°): 15.85 µM
- 3DG Conc ([2]; 12 mM, 3 days, 37°): 15.44 µM
Molecule: Cc1ncc(CO)c(CO)c1O [Pyridoxine]

- 3DG Conc ([2]; 5 mM, 1 day, 37°): 16.27 µM
- 3DG Conc ([2]; 5 mM, 3 days, 37°): 14.49 µM
- 3DG Conc ([2]; 15 mM, 1 day, 37°): 14.83 µM
- 3DG Conc ([2]; 15 mM, 3 days, 37°): 14.81 µM
- 3DG Conc ([2]; 30 mM, 1 day, 37°): 17.76 µM
- 3DG Conc ([2]; 30 mM, 3 days, 37°): 14.89 µM
Molecule: Cc1ncc(C[n+]2csc(CCO)c2C)c(N)n1 [Thiamine-HCl]

- 3DG Conc ([2]; 5 mM, 0 day): 20.96 µM
- 3DG Conc ([2]; 5 mM, 1 day, 37°): 24.16 µM
- 3DG Conc ([2]; 5 mM, 3 days, 37°): 22.02 µM
- 3DG Conc ([2]; 15 mM, 0 day): 18.06 µM
- 3DG Conc ([2]; 15 mM, 1 day, 37°): 18.98 µM
- 3DG Conc ([2]; 15 mM, 3 days, 37°): 19.21 µM
- 3DG Conc ([2]; 30 mM, 0 day): 19.25 µM
- 3DG Conc ([2]; 30 mM, 1 day, 37°): 17.42 µM
- 3DG Conc ([2]; 30 mM, 3 days, 37°): 16.87 µM
Molecule: NC[C@H]1CC[C@H](C(=O)O)CC1 [Tranexamic Acid, reference compound]

Molecule: N[C@@H](CCCCNC[C@H](O)[C@@H](O)[C@@H](O)[C@H](O)CO)C(=O)O [galactitollysine]
- urinary or plasma 3DG [3]: reduced

Molecule: N[C@@H](CCCCNC[C@@H](O)[C@@H](O)[C@H](O)[C@H](O)CO)C(=O)O [mannitollysine]
- urinary or plasma 3DG [3]: reduced

Molecule: N[C@@H](CCCCNC[C@H](O)[C@@H](O)[C@H](O)[C@H](O)CO)C(=O)O [sorbitollysine]
- urinary or plasma 3DG [3]: reduced

- 3DG Conc ([2]; 5 mM, 1 day, 37°): 15.87 µM
- 3DG Conc ([2]; 5 mM, 3 days, 37°): 16.45 µM
- 3DG Conc ([2]; 15 mM, 1 day, 37°): 18.90 µM
- 3DG Conc ([2]; 15 mM, 3 days, 37°): 14.19 µM
- 3DG Conc ([2]; 30 mM, 1 day, 37°): 17.20 µM
- 3DG Conc ([2]; 30 mM, 3 days, 37°): 14.85 µM
Molecule: Thiamine nitrate

Source: patent publication US20160331798A1, “NATURAL PRODUCT INHIBITORS OF 3DG” (Dynamis Pharmaceuticals, Inc., priority 2008, published 2016)
